Experimental data from patent US11452731B2, “Method of treating and preventing loss of cognition” (ENDORECHERCHE, INC., priority 2009, dated 2022).
Like-named read-outs stand apart in the source and are kept apart here. Marks after values point to notes of the source that are not given here.

Tests used:
[1] = test system: ZR-75-1 human breast cancer xenografts; test: Growth and response of human ZR-75-1 breast tumor xenografts in estrone-supplemented OVX nude mice, DHEA and/or EM-800 for 9.5 months (Example 1); type: in vivo; settings: for Inhibition of estrone-stimulated ZR-75-1 tumor size / Category of response: Complete (%) / Category of response: Complete (Number) / Category of response: Partial (%) / Category of response: Partial (Number) / Category of response: Progression (%) / Category of response: Progression (Number) / Category of response: Stable (%) / Category of response: Stable (Number) / Average tumor weight at end of experiment: 9.5 months; for Category of response: Complete (%) / Category of response: Complete (Number) / Category of response: Partial (%) / Category of response: Partial (Number) / Category of response: Progression (%) / Category of response: Progression (Number) / Category of response: Stable (%) / Category of response: Stable (Number) / Average tumor weight at end of experiment: E1-supplemented
[2] = Clinical trial ERC-213: DHEA vaginal suppositories for 7 days, maturation index and vaginal pH in postmenopausal women (Example 11); type: in vivo
Description: Data are expressed as means±SEM (n=9 or 10). *, p<0.05, **, p<0.01, Data on Day 7 versus Data on Day 1.
The primary objective of that study was measurement of the maturation value of the vaginal epithelial cells following daily intravaginal application of DHEA. Forty postmenopausal women were randomized to receive a daily dose of one ovule of the following DHEA concentrations: 0.0%, 0.5% (6.5 mg of DHEA/ovule), 1.0% (13 mg of DHEA/ovule) or 1.8% (23.4 mg of DHEA/ovule) for 7 days. The systemic bioavailability of DHEA and its metabolites were also measured.

[3] = cited from earlier work
[4] = 6 months; cited from earlier work
[5] = Uterine and vaginal weight in ovariectomized BALB/c mice treated orally for 9 days with or without estrone (Example 3); type: in vivo; settings: for inhibition of estrone-stimulated uterine weight / inhibition of vaginal weight (estrone-stimulated): OVX mice + estrone, oral 9 days
Outline: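 OVX BALB/c mice (18-20 g) were dosed orally by gavage once daily for 9 days from day 2 post-OVX, with or without estrone s.c. twice daily from day 5 for 6 days. The vehicle was 4% ethanol in 0.4% methylcellulose. Uterine and vaginal weights were taken on the 11th morning after OVX.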

[6] = 26-week treatment of ovariectomized rats: lumbar spine BMD, total body fat, serum cholesterol, ALP (Example 4, experiment 2); type: in vivo, rat; settings: OVX rats, 26 weeks
Description: Ten to twelve week-old female Sprague-Dawley rats (Crl:CD(SD)Br) (Charles River Laboratory, St-Constant, Canada) weighing approximately 220-270 g at start of treatment were used. […] The animals were housed individually and were allowed free access to tap water and a pelleted certified rodent feed (Lab Diet 5002, Ralston Purina, St-Louis, Mo.). Experiments were conducted in an animal facility approved by the Canadian Council on Animal Care (CCAC) and the Association for Assessment and Accreditation of Laboratory Animal Care (AAALAC) in accordance with the CCAC Guide for Care and Use of Experimental Animals. […] Treatments were initiated on day 2 of the study and were performed once daily during 26 weeks. In both experiments, animals not receiving a test article were treated with the appropriate vehicle alone during the same period. […] QDR 4500A, Hologic, Waltham, Mass.) and a Regional High Resolution Scan software. […] Samples were processed for serum preparation and frozen at -80° C. until assay. Serum cholesterol levels and alkaline phospatase activity (ALP) were determined using the Boehringer Mannheim Diagnostic Hitachi 911 Analyzer (Boehringer Mannheim Diagnostic Laboratory Systems).

[7] = Endometrial epithelium thickness in OVX nude mice after 161 days of antiestrogen (Example 8); type: in vivo
Outline: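 OVX nude mice received antiestrogen with or without an estrone implant; controls were OVX and OVX+Estrone. Antiestrogens were given as suspensions for 161 days. Uteri were then collected and H&E sections analysed by image analysis for mean endometrial epithelial cell height.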

[8] = DHEA 0.3 mg, EM-800 15 μg, or EM-800 15 μg + DHEA 0.3 mg
[9] = DHEA 1.0 mg, EM-800 50 μg, or EM-800 15 μg + DHEA 1.0 mg
[10] = DHEA 3.0 mg, EM-800 100 μg, or EM-800 15 μg + DHEA 3.0 mg
[11] = OVX mice, absence of estrone, 10 μg daily (no-effect statements: 1 μg and 10 μg)
[12] = Premarin 0.25 mg/kg, SERMs 2.5 mg/kg

In the case of C[C@]12CC[C@H](O)CC1=CC[C@@H]1[C@@H]2CC[C@]2(C)C(=O)CC[C@@H]12 [DHEA, dehydroepiandrosterone], the “Inhibition of estrone-stimulated ZR-75-1 tumor size” value ([1]; daily DHEA 0.3 mg or EM-800 15 μg) is reported as 50.4%, the “Inhibition of estrone-stimulated ZR-75-1 tumor size” value ([1]; daily DHEA 1.0 mg or EM-800 50 μg) is reported as 76.8% and the “Inhibition of estrone-stimulated ZR-75-1 tumor size” value ([1]; daily DHEA 3.0 mg or EM-800 100 μg) is reported as 80.0%. For the same compound, the “Inhibition of terminal tumor weight” value ([1]; DHEA 0.3 mg) was 67%, the “Inhibition of terminal tumor weight” value ([1]; DHEA 1.0 mg) was 82% and the “Inhibition of terminal tumor weight” value ([1]; DHEA 3.0 mg) was 85%. For the same compound, the “Category of response: Complete (%)” value [1, 8] was 28.6%, the “Category of response: Complete (Number)” value [1, 8] was 4 and the “Category of response: Partial (%)” value [1, 8] was 0 (0) %. The “Category of response: Partial (Number)” value [1, 8] was 0 (0), the “Category of response: Progression (%)” value [1, 8] was 50.0% and the “Category of response: Progression (Number)” value [1, 8] was 7. For the same compound, the “Category of response: Stable (%)” value [1, 8] was 21.4%, the “Category of response: Stable (Number)” value [1, 8] was 3 and the “Category of response: Complete (%)” value [1, 9] was 26.7%. For the same compound, the “Category of response: Complete (Number)” value [1, 9] was 4, the “Category of response: Partial (%)” value [1, 9] was 0 (0) % and the “Category of response: Partial (Number)” value [1, 9] was 0 (0). For the same compound, the “Category of response: Progression (%)” value [1, 9] was 53.3%, the “Category of response: Progression (Number)” value [1, 9] was 8 and the “Category of response: Stable (%)” value [1, 9] was 20.0%. The “Category of response: Stable (Number)” value [1, 9] was 3, the “Category of response: Complete (%)” value [1, 10] was 20.0% and the “Category of response: Complete (Number)” value [1, 10] was 3. The “Category of response: Partial (%)” value [1, 10] was 0 (0) %, the “Category of response: Partial (Number)” value [1, 10] was 0 (0) and the “Category of response: Progression (%)” value [1, 10] was 66.7%. For the same compound, the “Category of response: Progression (Number)” value [1, 10] was 10, the “Category of response: Stable (%)” value [1, 10] was 13.3% and the “Category of response: Stable (Number)” value [1, 10] was 2. The “Average tumor weight at end of experiment” value (“Average tumor weight at end” below) ([1]; daily DHEA 0.3 mg, EM-800 15 μg, or EM-800 15 μg + DHEA 0.3 mg) was 0.37 ± 0.12 g, the “Average tumor weight at end” value ([1]; daily DHEA 1.0 mg, EM-800 50 μg, or EM-800 15 μg + DHEA 1.0 mg) was 0.20 ± 0.06 g and the “Average tumor weight at end” value ([1]; daily DHEA 3.0 mg, EM-800 100 μg, or EM-800 15 μg + DHEA 3.0 mg) was 0.17 ± 0.06 g. For the same compound, the “increase of maturation index, Day 7 versus Day 1” value (shortened to “increase of maturation index”) ([2]; 0.5% DHEA vaginal suppository daily) was 107%, the “Vaginal pH” value ([2]; 0.5% DHEA, Day 1 (before)) was 6.29±0.21 and the “Vaginal pH” value ([2]; 0.5% DHEA, Day 7) was 5.75±0.27. For the same compound, the “increase of maturation index” value ([2]; 1.0% DHEA vaginal suppository daily) was 75%, the “Vaginal pH” value ([2]; 1.0% DHEA, Day 1 (before)) was 6.47±0.23 and the “Vaginal pH” value ([2]; 1.0% DHEA, Day 7) was 5.76±0.22. The “increase of maturation index” value ([2]; 1.8% DHEA vaginal suppository daily) was 150%, the “Vaginal pH” value ([2]; 1.8% DHEA, Day 1 (before)) was 6.53±0.25 and the “Vaginal pH” value ([2]; 1.8% DHEA, Day 7) was 5.86±0.28. The “decrease of abdominal subcutaneous fat” value ([3]; both women and men) was 6%, the “decrease of responsiveness of serum insulin to the glucose tolerance test” value ([3]; in vivo) was 13% and the “improvement in the insulin sensitivity index” value ([3]; in vivo) was 34%. For the same compound, the “decrease of abdominal visceral fat” value ([3]; men) was 7.4%, the “decrease of abdominal visceral fat” value ([3]; women) was 10.2% and the “decrease of total body fat mass” value [4] was 1.4 kg. For the same compound, the “increase of fat-free mass” value [4] was 0.9 kg.

With CC1=C(c2ccc(O)cc2)[C@H](c2ccc(OCCN3CCCCC3)cc2)Oc2cc(O)ccc21.Cl [EM-652.HCl, (S)-(+)-7-hydroxy-3-(4′-hydroxyphenyl)-4-methyl-2-(4″-(2′″-piperidinoethoxy)phenyl)-2H-1-benzopyran hydrochloride] the “inhibition of estrone-stimulated uterine weight” value ([5]; 1 μg daily) was 24%, the “inhibition of vaginal weight (estrone-stimulated)” value (from here on “inhibition of vaginal weight”) ([5]; 1 μg daily) was 10% and the “inhibition of estrone-stimulated uterine weight” value ([5]; 3 μg daily) was 48%. For the same compound, the “inhibition of vaginal weight” value ([5]; 3 μg daily) was 25%, the “inhibition of estrone-stimulated uterine weight” value ([5]; 10 μg daily) was 72% and the “inhibition of vaginal weight” value ([5]; 10 μg daily) was 53%. The “stimulation of uterine weight (estrogenic effect)” value [5, 11] was “no significant stimulatory effect”, the “stimulation of vaginal weight (estrogenic effect)” value [5, 11] was “no significant stimulatory effect” and the ALP [6] was 78 ± 4 IU. For the same compound, the “CHOLESTEROL (serum)” value [6] was 0.98 ± 0.06 mmol/L, the “TOTAL FAT” value [6] was 27.7 ± 1.4 % and the “reversal of the fat increase induced by estrogen deficiency” value [6] was 78%. For the same compound, the “LUMBAR SPINE BMD” value [6, 12] was 0.2311 ± 0.0040 g/cm^2, the “LUMBAR SPINE Prevention of Bone Loss” value [6, 12] was 62% and the “inhibition of the stimulatory effect of estrone on epithelial height” value ([7]; 50 μg daily oral, estrone stimulation) was 70%. The “height of uterine epithelial cells, % of the OVX control group value” ([7]; 200 μg daily, absence of estrone) was 114%, the “ENDOMETRIAL EPITHELIUM THICKNESS (μm) ± SEM” value ([7]; OVX + E1, antiestrogen 50 μg daily) was 25.06^b ± 0.07 μm and the “ENDOMETRIAL EPITHELIUM THICKNESS (μm) ± SEM” value ([7]; OVX without E1, antiestrogen 200 μg daily) was 20.79 ± 0.10 μm.
